Measurements taken from patent US9284543B2, “Neutral active soluble truncated PH20 polypeptides and uses thereof” (Halozyme, Inc., priority 2008, dated 2016).
Each block holds one molecule with its values, some of them ahead of it.

What was measured:
[1] = system: HZ24-2B2 cells expressing rHuPH20; test: Treatment of rHuPH20-expressing cells with glycosylation inhibitors; assay type: cell-based, Chinese Hamster; conditions: for Effect on PH20 activity (in words): tissue culture media and inside the cell
Procedure: Briefly, 1×10^6 HZ24-2B2 cells expressing rHuPH20 (see Example 14 below) were seeded in 24 mL complete CD-CHO medium in two 125 mL flasks. Tunicamycin (dissolved in DMSO) or Kifunensine (freshly dissolved in water) was added to a final concentration of 5 μg/mL (containing 12 μL DMSO). As a control, one flask was seeded with 1×10^6 HZ24-2B2 cells expressing rHuPH20 and 12 μL DMSO was added as a vehicle control. Following addition of either tunicamycin or kifunensine, the cells were incubated for 4-6 hours at 37° C. with 5% CO2. Following expression, a 2 mL culture was removed and centrifuged for 5 minutes at 500 g. The supernatant was stored at 4° C. and the cell pellets were stored at −20° C. The remaining 22 mL cultures were centrifuged for 5 minutes at 500 g. The supernatant was stored at 4° C. The cells were resuspended in 22 mL complete CD-CHO medium in the original two 125 mL flasks. Tunicamycin or Kifunensine was added to the culture at a final concentration of 5 μg/mL and the cells were incubated at 37° C. with 5% CO2. Two mL (2 mL) cultures were removed from each flask at approximately every 24 hours post changing medium. For each time point, the supernatant was stored at 4° C. and the cell pellets were stored at −20° C. The expression of rHuPH20 was analyzed by Western blot analysis and the hyaluronidase activity was measured using the biotinylated HA enzymatic assay (as described in Examples 3 and 5 above).

CHO-S cells = test: Western blot analysis of PH20 expression in media and cells after transient expression; assay type: cell-based, Chinese Hamster; conditions: media versus cells
Procedure: The mutant PH20-HZ24 plasmids generated in Example 1 were transiently […] into CHO—S cells (derived from Chinese Hamster Ovary CHO K1 cells) using GeneJuice® (Novagen) according to the manufacturer's instructions. In short, the CHO—S cells were grown in CD CHO medium supplemented with L-glutamine. Prior to transfection, the CHO—S cells were plated in 6-well plates, with approximately 5×10^5 cells per well, and grown overnight at 37° C. with 5% CO2. The medium was then removed and the CHO—S cells were washed 2 times with 1 mL serum-free medium. GeneJuice® was mixed with serum-free media followed by the addition of 2 μg mutant-HZ24 DNA. After incubating at room temperature for 5-15 minutes, the GeneJuice®/DNA mixture was added dropwise to an individual well containing the washed CHO—S cells. After 4 hours, the medium was replaced with 1 mL CD-CHO medium supplemented with L-glutamine and the cells were incubated for 72 hours at 37° C. with 5% CO2. Following expression, the media and cells were harvested separately.
The mutant PH20-HZ24 plasmids generated in Example 1 were transiently […] into CHO—S cells using GeneJuice® (Novagen) according to the manufacturer's instructions. […]
In this example, following transient expression, as described in Example 2 above, the media and cells were harvested separately and analyzed for PH20 expression and solublility by Western blot analysis. Solubility of the C-terminus truncation mutants was determined by examining whether the expressed protein was present in the growth media or in the cells. […] Cells expressing these mutants were treated with phosphoinositol-phospholipase C (PI-PLC), which cleaves the GPI-anchor allowing the release of soluble protein into the media, and the presence of PH20 in the resulting media and cells was determined by Western blot analysis.
Non-reduced samples were run on a 4-20% Tris-Glycine gel and transferred to PVDF membrane using iBlot (Invitrogen). For the Western blot, rabbit anti-PH20 IgG (0.5 μg/mL) was used as the primary antibody and HRP-conjugated goat anti-rabbit IgG (0.1 ng/mL, Cat#DC03L, EMD) was used as the secondary antibody. Evidence of expression is determined by a band at approximately 66 kDa, corresponding to recombinant human PH20 hyaluronidase.

[2] = Microtiter hyaluronidase activity assay with biotinylated-hyaluronic acid; assay type: biochemical; conditions: Table 6, 72 hour post transfection supernatant
Procedure: In Example 4, the hyaluronidase activity of truncated human PH20 hyaluronidase is determined using biotinylated hyaluronic acid. The free carboxyl groups on the glucuronic acid residues of hyaluronic acid are biotinylated, and the biotinylated hyaluronic acid substrate is covalently coupled to a microtiter plate. Following incubation with hyaluronidase, the residual biotinylated hyaluronic acid substrate is detected using an avidin-peroxidase reaction, and compared to that obtained following reaction with hyaluronidase standards of known activity. […] The sensitivity permits rapid measurement of hyaluronidase activity from cultured cells and biological samples with an inter-assay variation of less than 10%.
In this example, the human PH20 hyaluronidase carboxy-terminus deletion mutants were tested for their PH20 hyaluronidase activity using a microtiter assay with biotinylated-hyaluronic acid (biotinylated-HA or bHA). The human PH20 hyaluronidase carboxy-terminus deletion mutants were tested for hyaluronidase activity at both pH 7.4 and pH 5.5.
In short, a 4×BH 96-well plate was coated with biotinylated-HA (1.1 MDa). The 72 hour post transfection supernatant from cells transfected with human PH20 hyaluronidase carboxy-terminus deletion mutants was diluted in buffer at either pH 7.4 or pH 5.5 and added to individual wells of the plate and allowed to incubate at 37° C. for 90 minutes. The reaction was terminated by addition of 4M guanidine HCl. The wells were washed 4× with Phosphate Buffered Saline with Tween20 (PBST) to remove any digested biotinylated-HA followed by addition of streptavidin-HRP for 1 hour at room temperature. The wells were washed 4× with PBST and the plate was developed with TMB. The plate was read at 450 nm using an ELISA plate reader. Hyaluronidase activity (in Units/mL) was determined by interpolating the measured absorbance at 450 nm with a hyaluronidase reference standard curve. Full length mature human PH20 hyaluronidase and untransfected CHO cells were used as positive and negative controls.

Molecule: Tunicamycin
Effect on cell viability (in words) ([1]; 5 μg/mL): complete loss of cell viability
PH20 activity ([1]; Cell Pellets, With Tunicamycin, 0 hours): 34.50 U/mL
PH20 activity ([1]; Cell Pellets, With Tunicamycin, 1 hours): 38.00 U/mL
PH20 activity ([1]; Cell Pellets, With Tunicamycin, 2 hours): 34.00 U/mL
PH20 activity ([1]; Cell Pellets, With Tunicamycin, 4 hours): 18.00 U/mL
PH20 activity ([1]; Cell Pellets, With Tunicamycin, 25 hours): 1.00 U/mL
PH20 activity ([1]; Cell Pellets, With Tunicamycin, 49 hours): 0.80 U/mL
PH20 activity ([1]; Cell Pellets, With Tunicamycin, 73 hours): 0.30 U/mL
PH20 activity ([1]; Cell Pellets, With Tunicamycin, 91 hours): 0.30 U/mL
PH20 activity ([1]; Tissue Culture Media, With Tunicamycin, 0 hours): 0.50 U/mL
PH20 activity ([1]; Tissue Culture Media, With Tunicamycin, 1 hours): 2.80 U/mL
PH20 activity ([1]; Tissue Culture Media, With Tunicamycin, 2 hours): 5.00 U/mL
PH20 activity ([1]; Tissue Culture Media, With Tunicamycin, 4 hours): 8.80 U/mL
PH20 activity ([1]; Tissue Culture Media, With Tunicamycin, 25 hours): 5.80 U/mL
PH20 activity ([1]; Tissue Culture Media, With Tunicamycin, 49 hours): 6.80 U/mL
PH20 activity ([1]; Tissue Culture Media, With Tunicamycin, 73 hours): 7.80 U/mL
PH20 activity ([1]; Tissue Culture Media, With Tunicamycin, 91 hours): 7.50 U/mL
Viable Cells ([1]; With Tunicamycin 5 μg/mL, 0 hours): 1.04 ×10^6
Viable Cells ([1]; With Tunicamycin 5 μg/mL, 1 hours): 1.04 ×10^6
Viable Cells ([1]; With Tunicamycin 5 μg/mL, 2 hours): 1.04 ×10^6
Viable Cells ([1]; With Tunicamycin 5 μg/mL, 4 hours): 0.910 ×10^6
Viable Cells ([1]; With Tunicamycin 5 μg/mL, 25 hours): 1.08 ×10^6
Viable Cells ([1]; With Tunicamycin 5 μg/mL, 49 hours): 0.200 ×10^6
Viable Cells ([1]; With Tunicamycin 5 μg/mL, 73 hours): 0.080 ×10^6
Viable Cells ([1]; With Tunicamycin 5 μg/mL, 91 hours): 0 ×10^6
Accumulation of deglycosylated human PH20 inside the cell ([1]; one hour of treatment, SDS-PAGE mobility shift to approximately 56 kDa in cell pellet fractions): accumulation of deglycosylated human PH20 hyaluronidase inside the cell
Effect on PH20 activity (in words) ([1]; 5 μg/mL): inhibits PH20 activity

Molecule: O=C1N[C@@H]2[C@@H](O)[C@@H](O)[C@H](O)[C@@H](CO)N2C1=O [Kifunensine]
PH20 activity ([1]; Cell Pellets, With Kifunensine, 0 hours): 22.25 U/mL
PH20 activity ([1]; Cell Pellets, With Kifunensine, 6 hours): 21.25 U/mL
PH20 activity ([1]; Cell Pellets, With Kifunensine, 24 hours): 27.75 U/mL
PH20 activity ([1]; Cell Pellets, With Kifunensine, 50 hours): 43 U/mL
PH20 activity ([1]; Cell Pellets, With Kifunensine, 72 hours): 98.75 U/mL
PH20 activity ([1]; Cell Pellets, With Kifunensine, 96 hours): 208.75 U/mL
PH20 activity ([1]; Cell Pellets, With Kifunensine, […]): 497.25 U/mL
PH20 activity ([1]; Tissue Culture Media, With Kifunensine, 0 hours): 0.4 U/mL
PH20 activity ([1]; Tissue Culture Media, With Kifunensine, 6 hours): 23.85 U/mL
PH20 activity ([1]; Tissue Culture Media, With Kifunensine, 24 hours): 129.6 U/mL
PH20 activity ([1]; Tissue Culture Media, With Kifunensine, 50 hours): 299.7 U/mL
PH20 activity ([1]; Tissue Culture Media, With Kifunensine, 72 hours): 535.95 U/mL
PH20 activity ([1]; Tissue Culture Media, With Kifunensine, 96 hours): 945 U/mL
PH20 activity ([1]; Tissue Culture Media, With Kifunensine, […]): 2968.65 U/mL
Viable Cells ([1]; With Kifunensine 5 μg/mL, 0 hours): 1 ×10^6
Viable Cells ([1]; With Kifunensine 5 μg/mL, 6 hours): 1 ×10^6
Viable Cells ([1]; With Kifunensine 5 μg/mL, 24 hours): 1.2 ×10^6
Viable Cells ([1]; With Kifunensine 5 μg/mL, 50 hours): 2.1 ×10^6
Viable Cells ([1]; With Kifunensine 5 μg/mL, 72 hours): 3 ×10^6
Viable Cells ([1]; With Kifunensine 5 μg/mL, 96 hours): 3.7 ×10^6
Viable Cells ([1]; With Kifunensine 5 μg/mL, […]): 5.8 ×10^6
Effect on PH20 activity (in words) ([1]; 5 μg/mL): did not affect the activity of PH20
Effect on expression and secretion of rHuPH20 ([1]; western blot analysis, 5 μg/mL): inhibited the expression and secretion of rHuPH20

Further lines, with some results ahead:

pH 5.5 Activity [2]: 2.925 Units/ml
pH 7.4 Activity [2]: 3.204 Units/ml
B1: SPAM1-AFLK: C-terminally truncated human PH20, precursor 470 aa (SEQ ID NO:30), mature 435 aa (SEQ ID NO:82) (protein, listed as Homo sapiens)
chain: MGVLKFKHIFFRSFVKSSGVSQIVFTFLLIPCCLTLNFRAPPVIPNVPFLWAWNAPSEFCLGKFDEPLDMSLFSFIGSPRINATGQGVTIFYVDRLGYYPYIDSITGVTVNGGIPQKISLQDHLDKAKKDITFYMPVDNLGMAVIDWEEWRPTWARNWKPKDVYKNRSIELVQQQNVQLSLTEATEKAKQEFEKAGKDFLVETIKLGKLLRPNHLWGYYLFPDCYNHHYKKPGYNGSCFNVEIKRNDDLSWLWNESTALYPSIYLNTQQSPVAATLYVRNRVREAIRVSKIPDAKSPLPVFAYTRIVFTDQVLKFLSQDELVYTFGETVALGASGIVIWGTLSIMRSMKSCLLLDNYMETILNPYIINVTLAAKMCSQVLCQEQGVCIRKNWNSSDYLHLNPDNFAIQLEKGGKFTVRGKPTLEDLEQFSEKFYCSCYSTLSCKEKADVKDTDAVDVCIADGVCIDAFLK
modifications: HuPH20 precursor 1-470
Expressed in Media (CHO-S cells): YES

pH 5.5 Activity [2]: 2.313 Units/ml
pH 7.4 Activity [2]: 3.96 Units/ml
B2: VASL + PLC: full length human PH20 (SEQ ID NO: 108) with PLC treatment (protein, listed as Homo sapiens)
chain: LNFRAPPVIPNVPFLWAWNAPSEFCLGKFDEPLDMSLFSFIGSPRINATGQGVTIFYVDRLGYYPYIDSITGVTVNGGIPQKISLQDHLDKAKKDITFYMPVDNLGMAVIDWEEWRPTWARNWKPKDVYKNRSIELVQQQNVQLSLTEATEKAKQEFEKAGKDFLVETIKLGKLLRPNHLWGYYLFPDCYNHHYKKPGYNGSCFNVEIKRNDDLSWLWNESTALYPSIYLNTQQSPVAATLYVRNRVREAIRVSKIPDAKSPLPVFAYTRIVFTDQVLKFLSQDELVYTFGETVALGASGIVIWGTLSIMRSMKSCLLLDNYMETILNPYIINVTLAAKMCSQVLCQEQGVCIRKNWNSSDYLHLNPDNFAIQLEKGGKFTVRGKPTLEDLEQFSEKFYCSCYSTLSCKEKADVKDTDAVDVCIADGVCIDAFLKPPMETEEPQIFYNASPSTLSATMFIVSILFLIISSVASL
modifications: PLC treatment; Mature Human PH20 36-509
